In ChEMBL document CHEMBL5715942, “A novel histone deacetylase 8 (HDAC8)-specific inhibitor PCI-34051 induces apoptosis in T-cell lymphomas” (Leukemia, 2008):
Calls of active or inactive are those of the source. The rule behind the calls is not given here.

Legend:
[1] = system: MCF7; assay: Anti-proliferative activity against human MCF7 cells assessed as growth inhibition incubated for 72 hrs by alamar blue staining based fluorometric assay; format: functional
[2] = system: HCT-116; assay: Anti-proliferative activity against human HCT-116 cells assessed as growth inhibition incubated for 72 hrs by alamar blue staining based fluorometric assay; format: functional
[3] = system: J.gamma1; assay: Downregulation of apoptosis in human J.gamma1 cells at 10 uM incubated for 24 hrs in presence of BAPTA-AM by Annexin-V staining based flow cytometry analysis
[4] = system: SUD4; assay: Induction of apoptosis in human SU-DHL-4 cells assessed as cell death at 5 uM incubated for 2 days by Annexin-V staining based flow cytometry analysis; format: functional; conditions: time 2.0 day
[5] = system: Ramos; assay: Induction of apoptosis in human Ramos cells assessed as cell death at 5 uM incubated for 2 days by Annexin-V staining based flow cytometry analysis; format: functional; conditions: time 2.0 day
[6] = system: MCF7; assay: Induction of apoptosis in human MCF7 cells incubated for 72 hrs by Annexin-V staining based flow cytometry analysis relative to control; format: functional
[7] = system: HuT78; assay: Induction of apoptosis in human HuT78 cells assessed as cell death at 5 uM incubated for 2 days by Annexin-V staining based flow cytometry analysis; format: functional; conditions: time 2.0 day
[8] = system: Jurkat; assay: Induction of apoptosis in human Jurkat cells at 5 uM incubated for 24 hrs in presence of thapsigargin by Annexin-V staining based flow cytometry analysis relative to control; format: functional
[9] = system: U-87 MG; assay: Anti-proliferative activity against human U87 cells assessed as growth inhibition incubated for 72 hrs by alamar blue staining based fluorometric assay; format: functional, U-87MG ATCC
[10] = system: J.gamma1; assay: Induction of apoptosis in human J.gamma1 cells at 5 uM incubated for 24 hrs in presence of thapsigargin by Annexin-V staining based flow cytometry analysis relative to control; format: functional
[11] = system: RKO; assay: Anti-proliferative activity against human RKO cells assessed as growth inhibition incubated for 72 hrs by alamar blue staining based fluorometric assay; format: functional
[12] = system: Ramos; assay: Anti-proliferative activity against human Ramos cells assessed as growth inhibition incubated for 72 hrs by alamar blue staining based fluorometric assay; format: functional
[13] = system: RKO; assay: Induction of apoptosis in human RKO cells incubated for 72 hrs by Annexin-V staining based flow cytometry analysis relative to control; format: functional
[14] = system: A549; assay: Induction of apoptosis in human A549 cells incubated for 72 hrs by Annexin-V staining based flow cytometry analysis relative to control; format: functional
[15] = system: HCT-116; assay: Induction of apoptosis in human HCT-116 cells incubated for 72 hrs by Annexin-V staining based flow cytometry analysis relative to control; format: functional
[16] = system: Jurkat; assay: Downregulation of apoptosis in human Jurkat cells incubated for 2 days in presence of U73122 by Annexin-V staining based flow cytometry analysis; format: functional, cell-based; conditions: dose 10.0 µM, time 2.0 day
[17] = system: J.gamma1; assay: Induction of apoptosis in human J.gamma1 cells at 10 uM incubated for 2 days in presence of U-73122 by Annexin-V staining based flow cytometry analysis; format: functional, cell-based; conditions: time 2.0 day
[18] = system: CCRF-HSB-2; assay: Anti-proliferative activity against human CCRF-HSB-2 cells assessed as growth inhibition incubated for 72 hrs by alamar blue staining based fluorometric assay; format: functional
[19] = system: CCRF-HSB-2; assay: Induction of apoptosis in human CCRF-HSB-2 cells assessed as cell death at 5 uM incubated for 2 days by Annexin-V staining based flow cytometry analysis; format: functional; conditions: time 2.0 day
[20] = system: RPMI-8226; assay: Anti-proliferative activity against human RPMI-8226 cells assessed as growth inhibition incubated for 72 hrs by alamar blue staining based fluorometric assay; format: functional
[21] = system: Jurkat; assay: Induction of apoptosis in human Jurkat cells assessed as cell death at 5 uM incubated for 2 days by Annexin-V staining based flow cytometry analysis; format: functional; conditions: time 2.0 day
[22] = system: OVCAR-3; assay: Anti-proliferative activity against human OVCAR-3 cells assessed as growth inhibition incubated for 72 hrs by alamar blue staining based fluorometric assay; format: functional
[23] = system: Raji; assay: Induction of apoptosis in human Raji cells assessed as cell death at 5 uM incubated for 2 days by Annexin-V staining based flow cytometry analysis; format: functional; conditions: time 2.0 day
[24] = system: Jurkat; assay: Downregulation of apoptosis in human Jurkat cells incubated for 24 hrs in presence of BAPTA-AM by Annexin-V staining based flow cytometry analysis; format: functional, cell-based; conditions: dose 10.0 µM
[25] = system: Jurkat; assay: Induction of apoptosis in human Jurkat cells assessed as increased caspase-3 activity at 5 uM incubated for 12 to 48 hrs by colorimetric assay; format: functional, cell-based; conditions: time 12-48 hrs
[26] = system: Raji; assay: Anti-proliferative activity against human Raji cells assessed as growth inhibition incubated for 72 hrs by alamar blue staining based fluorometric assay; format: functional
[27] = system: Jurkat; assay: Downregulation of apoptosis in human Jurkat cells at 10 uM incubated for 2 days in presence of U-73343 by Annexin-V staining based flow cytometry analysis; format: functional, cell-based; conditions: time 2.0 day
[28] = system: THP-1; assay: Anti-proliferative activity against human THP-1 cells assessed as growth inhibition incubated for 72 hrs by alamar blue staining based fluorometric assay; format: functional
[29] = system: K562; assay: Anti-proliferative activity against human K562 cells assessed as growth inhibition incubated for 72 hrs by alamar blue staining based fluorometric assay; format: functional
[30] = system: HeLa; assay: Anti-proliferative activity against human HeLa cells assessed as growth inhibition incubated for 72 hrs by alamar blue staining based fluorometric assay; format: functional
[31] = system: SUD4; assay: Anti-proliferative activity against human SU-DHL-4 cells assessed as growth inhibition incubated for 72 hrs by alamar blue staining based fluorometric assay; format: functional
[32] = system: J.gamma1; assay: Induction of apoptosis in human J.gamma1 cells assessed as cytochrome c release from mitochondria at 10 uM incubated for 12 to 24 hrs by Western blotting analysis; format: functional, cell-based; conditions: time lower 12.0 hrs, time upper […]
[33] = system: Jurkat; assay: Induction of apoptosis in human Jurkat cells assessed as increase in intracellular calcium level at 2.5 to 10 uM incubated for 5 mins in presence of Iodo-1 and Ionomycin by spectrofluorimetric analysis; format: functional, cell-based; conditions: dose 2.5-10 µM
[34] = system: K562; assay: Induction of apoptosis in human K562 cells assessed as cell death at 5 uM incubated for 2 days by Annexin-V staining based flow cytometry analysis; format: functional; conditions: time 2.0 day
[35] = system: Jurkat; assay: Induction of apoptosis in human Jurkat cells assessed as PARP cleavage at 5 uM incubated for 48 hrs by Western blotting analysis; format: functional, cell-based
[36] = system: RPMI-8226; assay: Induction of apoptosis in human RPMI-8226 cells assessed as cell death at 5 uM incubated for 2 days by Annexin-V staining based flow cytometry analysis; format: functional; conditions: time 2.0 day
[37] = system: J.gamma1; assay: Downregulation of apoptosis in human J.gamma1 cells at 5 uM incubated for 2 days by Annexin-V staining based flow cytometry analysis; format: functional, cell-based; conditions: time 2.0 day
[38] = system: Jurkat; assay: Induction of apoptosis in human Jurkat cells assessed as increase in intracellular calcium level incubated for 5 mins in presence of Iodo-1 by spectrofluorimetric analysis; format: functional, cell-based; conditions: dose 2.5-10 µM
[39] = system: Jurkat; assay: Cytotoxicity in human Jurkat cells assessed as histone acetylation at <25 uM incubated for 24 hrs by Western blotting analysis; format: functional, cell-based
[40] = system: U-87 MG; assay: Induction of apoptosis in human U87 cells incubated for 72 hrs by Annexin-V staining based flow cytometry analysis relative to control; format: functional, U-87MG ATCC
[41] = system: Jurkat; assay: Cytotoxicity in human Jurkat cells assessed as tubulin acetylation at <25 uM incubated for 24 hrs by Western blotting analysis; format: functional, cell-based
[42] = system: Jurkat; assay: Induction of apoptosis in human Jurkat cells assessed as increase in cytosolic cytochrome c level at 10 uM incubated for 12 to 24 hrs by Western blotting analysis; format: functional, cell-based; conditions: time lower 12.0 hrs, time upper […]
[43] = system: DB; assay: Induction of apoptosis in human DB cells assessed as cell death at 5 uM incubated for 2 days by Annexin-V staining based flow cytometry analysis; format: functional; conditions: time 2.0 day
[44] = system: J.gamma1; assay: Induction of apoptosis in human J.gamma1 cells assessed as abolished intracellular calcium level at 10 uM incubated for 5 mins in presence of Iodo-1 by spectrofluorimetric analysis; format: functional, cell-based
[45] = system: THP-1; assay: Induction of apoptosis in human THP-1 cells assessed as cell death at 5 uM incubated for 2 days by Annexin-V staining based flow cytometry analysis; format: functional; conditions: time 2.0 day
[46] = system: J.gamma1; assay: Induction of apoptosis in human J.gamma1 cells at 10 uM incubated for 2 days in presence of U-73343 by Annexin-V staining based flow cytometry analysis; format: functional, cell-based; conditions: time 2.0 day
[47] = system: Jurkat; assay: Induction of apoptosis in human Jurkat cells assessed as decrease in FL-Bid at 5 uM incubated for 24 hrs by Western blotting analysis
[48] = system: OVCAR-3; assay: Induction of apoptosis in human OVCAR-3 cells incubated for 72 hrs by Annexin-V staining based flow cytometry analysis relative to control; format: functional
[49] = system: MOLT-4; assay: Anti-proliferative activity against human MOLT-4 cells assessed as growth inhibition incubated for 72 hrs by alamar blue staining based fluorometric assay; format: functional
[50] = system: Jurkat; assay: Induction of apoptosis in human Jurkat cells assessed as decrease in intracellular calcium level at 10 uM in presence of Iodo-1 and U73122 by spectrofluorimetric analysis; format: functional, cell-based
[51] = system: Jurkat; assay: Induction of apoptosis in human Jurkat cells assessed as intracellular calcium level at 10 uM in presence of Iodo-1 and U73343 by spectrofluorimetric analysis; format: functional, cell-based
[52] = system: HuT78; assay: Anti-proliferative activity against human HuT78 cells assessed as growth inhibition incubated for 72 hrs by alamar blue staining based fluorometric assay; format: functional
[53] = system: Jurkat; assay: Anti-proliferative activity against human Jurkat cells assessed as growth inhibition incubated for 72 hrs by alamar blue staining based fluorometric assay; format: functional
[54] = system: MOLT-4; assay: Induction of apoptosis in human MOLT-4 cells assessed as cell death at 5 uM incubated for 2 days by Annexin-V staining based flow cytometry analysis; format: functional; conditions: time 2.0 day
[55] = system: DB; assay: Anti-proliferative activity against human DB cells assessed as growth inhibition incubated for 72 hrs by alamar blue staining based fluorometric assay; format: functional
[56] = system: Jurkat; assay: Induction of apoptosis in human Jurkat cells assessed as increase in intracellular calcium level in presence of Iodo-1 by spectrofluorimetric analysis; format: functional, cell-based; conditions: dose 0.25-1 µM
[57] = system: J.gamma1; assay: Induction of apoptosis in human J.gamma1 cells at 0.2 uM incubated for 24 hrs by Annexin-V staining based flow cytometry analysis relative to control; format: functional
[58] = system: Jurkat; assay: Induction of apoptosis in human Jurkat cells assessed as increased intracellular calcium level in presence of Iodo-1 and U73122 by spectrofluorimetric analysis; format: functional, cell-based
[59] = system: J.gamma1; assay: Induction of apoptosis in human J.gamma1 cells assessed as increased intracellular calcium level at 1 uM in presence of Iodo-1 and Ionomycin by spectrofluorimetric analysis; format: functional, cell-based
[60] = system: J.gamma1; assay: Induction of apoptosis in human J.gamma1 cells assessed as increased intracellular calcium level in presence of Iodo-1 and U73122 by spectrofluorimetric analysis; format: functional, cell-based
[61] = system: J.gamma1; assay: Induction of apoptosis in human J.gamma1 cells assessed as increased intracellular calcium level at 1 uM in presence of Iodo-1 by spectrofluorimetric analysis; format: functional, cell-based
[62] = system: Jurkat; assay: Induction of apoptosis in human Jurkat cells assessed as increase in intracellular calcium level at 0.25 to 1 uM in presence of Iodo-1 and Ionomycin by spectrofluorimetric analysis; format: functional, cell-based; conditions: dose 0.25-1 µM
[63] = system: Jurkat; assay: Induction of apoptosis in human Jurkat cells assessed as intracellular calcium level at 0.4 uM in presence of Iodo-1 by spectrofluorimetric analysis; format: functional, cell-based

SMILES: COc1ccc(Cn2ccc3ccc(C(=O)NO)cc32)cc1
- GI50 [1]: > 20 µM
- GI50 [2]: > 20 µM
- Activity [3]: inactive
- Activity [4]: inactive
- Activity [5]: inactive
- Activity [6]: 0%
- Activity [7]: Active
- Activity [8]: > 30%
- GI50 [9]: 17 µM
- Activity [10]: 2%
- GI50 [11]: 14 µM
- GI50 [12]: 6.1 µM
- Activity [13]: 0%
- Activity [14]: 0%
- Activity [15]: 3%
- Activity [16]: Dose-Dependent Effect
- Activity [17]: inactive
- GI50 [18]: 1.4 µM
- Activity [19]: Active
- GI50 [20]: 28 µM
- Activity [21]: Active
- GI50 [22]: 6 µM
- Activity [23]: inactive
- Activity [24]: Dose-Dependent Effect
- Activity [25]: Active
- GI50 [26]: 6.8 µM
- Activity [27]: inactive
- GI50 [28]: 15.4 µM
- GI50 [29]: 33.6 µM
- GI50 [30]: > 20 µM
- GI50 [31]: 8.2 µM
- Activity [32]: inactive
- Activity [33]: Active
- Activity [34]: inactive
- Activity [35]: Active
- Activity [36]: inactive
- Activity [37]: Active
- Activity [38]: Dose-Dependent Effect
- Activity [39]: inactive
- Activity [40]: 0%
- Activity [41]: inactive
- Activity [42]: Active
- Activity [43]: inactive
- Activity [44]: inactive
- Activity [45]: inactive
- Activity [46]: inactive
- Activity [47]: inactive
- Activity [48]: 15%
- GI50 [49]: 3.3 µM
- Activity [50]: Active
- Activity [51]: Active
- GI50 [52]: 4 µM
- GI50 [53]: 2.4 µM
- Activity [54]: Active
- GI50 [55]: 21.2 µM

SMILES: C/C=C(/C)C(=O)O[C@H]1C(C)=C2[C@H]([C@@H]1OC(=O)CCCCCCC)[C@@](C)(OC(C)=O)C[C@H](OC(=O)CCC)[C@@]1(O)[C@H]2OC(=O)[C@@]1(C)O [THAPSIGARGIN]
- Activity [56]: Dose-Dependent Effect
- Activity [57]: 12%
- Activity [58]: Active
- Activity [59]: Active
- Activity [60]: Active
- Activity [61]: Active
- Activity [62]: Active

SMILES: COc1ccc2c(c1)CC[C@@H]1[C@@H]2CC[C@]2(C)[C@@H](NCCCCCCN3C(=O)C=CC3=O)CC[C@@H]12
- Activity [63]: inactive
